Data from US20040121936A1, “Composition” (Colgate-Palmolive Company, priority 2001, published 2004).
Entries after “also recorded” stand apart in the source; their conditions may differ.

Key:
[1] = tested on: bacteria; experiment: antibacterial efficacy by cup scrub method on humans against the composition without TCC; type: in vivo
Experimental: Using the formulation of Example 1 or Example 2 but with varying amounts of TCC, the amide wherein R is cocoyl, p is 2 and n is 1, and the alcohol wherein R′ is lauryl and q is 7, antibacterial efficacy is measured using a cup scrub method on humans against the composition without TCC.

[2] = stability of TCC in body cleansing composition (precipitate/crystals on storage); type: physicochemical; conditions: for Comments (precipitate/crystals of TCC): 0.15% TCC in body cleansing composition
Source text: Further work on the usefulness of this invention may be seen in the stability data of Example 5. TCC at 0.15% was incorporated in a body cleansing composition of (which may also include the types described above). using Promidium CO alone and in combination with Laureth-7.

Row | Molecule | log reduction of bacteria ([1]; TCC in the compositions, measured against a composition without TCC) | Comments (precipitate/crystals of TCC) ([2]; Promidium CO 0.675%, Laureth-7 0.675%) | Comments (precipitate/crystals of TCC) ([2]; Promidium CO 3.0%, Laureth-7 0.0%) | time for which no precipitate or crystals were observed ([2]; body cleansing composition with combination of Promidium CO and Laureth-7) [weeks] | effect of presence on antibacterial efficacy ([1]; presence of Promidium Co and/or laureth-7 in the composition)
1 | O=C(Nc1ccc(Cl)cc1)Nc1ccc(Cl)c(Cl)c1 [TCC, 3,4,4′-trichlorocarbanilide] | greater than 1 log | no precipitate or crystals were observed; also recorded: No Precipitate or crystals even | precipitate/crystals of TCC were observed at the bottom of the container after 4-5 weeks; also recorded: Precipitate/Crystals in 4-5 Weeks | ≥ 13 | 
2 | PPG-2 hydroxyethyl cocoamide [Promidium CO] |  |  |  |  | does not significantly affect antibacterial efficacy
